Assay results as given in ChEMBL document CHEMBL1201862, “PubChem BioAssay data set” (2004).
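Compound exposure: 48 hours, 5 concentrations, 96-well plates. GI50 marks 50% less growth.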 Calls of active or inactive are those of the source. Cut-off read from the data, not from the text of the source: active = GI50 up to about 1.1 µM and inactive = higher.

Key:
Assay in all cases: NCI-60 cell line screen, 48 h
[1] = tested on: CAKI-1
[2] = tested on: EKVX
[3] = tested on: HOP-62
[4] = tested on: HT-29
[5] = tested on: IGROV-1
[6] = tested on: K562
[7] = tested on: LOX IMVI
[8] = tested on: MOLT-4
[9] = tested on: NCI-H23
[10] = tested on: OVCAR-5
[11] = tested on: OVCAR-8
[12] = tested on: SF-268
[13] = tested on: SF-295
[14] = tested on: SF-539
[15] = tested on: SK-MEL-28
[16] = tested on: UACC-257
[17] = tested on: UACC-62
[18] = tested on: UO-31
[19] = tested on: A498

COc1ccc2c(c1)CCCN1Cc3cc(OC)c(OC)cc3CC21 (centres undefined)
GI50 [1]: > 100 µM (inactive)
GI50 [2]: > 100 µM (inactive)
GI50 [3]: 60.4 µM (inactive)
GI50 [4]: 28.1 µM (inactive)
GI50 [5]: 22.1 µM (inactive)
GI50 [6]: 80.7 µM (inactive)
GI50 [7]: 44.8 µM (inactive)
GI50 [8]: > 100 µM (inactive)
GI50 [9]: > 100 µM (inactive)
GI50 [10]: > 100 µM (inactive)
GI50 [11]: > 100 µM (inactive)
GI50 [12]: 50.9 µM (inactive)
GI50 [13]: > 100 µM (inactive)
GI50 [14]: 81.8 µM (inactive)
GI50 [15]: > 100 µM (inactive)
GI50 [16]: 56.1 µM (inactive)
GI50 [17]: 86.3 µM (inactive)
GI50 [18]: 48.8 µM (inactive)

CC(=O)CCC1(c2ccccc2)OC(=O)C(C#N)=C1c1ccccc1 (centres undefined)
GI50 [19]: > 100 µM (inactive)
GI50 [2]: > 100 µM (inactive)
GI50 [3]: > 100 µM (inactive)
GI50 [4]: > 100 µM (inactive)
GI50 [5]: > 100 µM (inactive)
GI50 [6]: 50.6 µM (inactive)
GI50 [7]: > 100 µM (inactive)
GI50 [8]: 33.7 µM (inactive)
GI50 [9]: > 100 µM (inactive)
GI50 [10]: > 100 µM (inactive)
GI50 [11]: > 100 µM (inactive)
GI50 [12]: 70 µM (inactive)
GI50 [13]: > 100 µM (inactive)
GI50 [14]: > 100 µM (inactive)
GI50 [15]: > 100 µM (inactive)
GI50 [16]: > 100 µM (inactive)
GI50 [17]: > 100 µM (inactive)
GI50 [18]: 29.2 µM (inactive)

CCN1CCC(O)(c2ccc(Oc3ccc(C)cc3)cc2)C(C(=O)c2ccc(Oc3ccc(C)cc3)cc2)C1 (centres undefined)
GI50 [19]: 0.426 µM (active)
GI50 [1]: 12.9 µM (inactive)
GI50 [2]: 15.6 µM (inactive)
GI50 [3]: 15.2 µM (inactive)
GI50 [4]: 3.33 µM (inactive)
GI50 [5]: 12.5 µM (inactive)
GI50 [6]: 2.95 µM (inactive)
GI50 [7]: 3.69 µM (inactive)
GI50 [8]: 10.3 µM (inactive)
GI50 [9]: 13.7 µM (inactive)
GI50 [10]: 13.9 µM (inactive)
GI50 [11]: 13.7 µM (inactive)
GI50 [12]: 17 µM (inactive)
GI50 [13]: 5.69 µM (inactive)
GI50 [15]: 11.2 µM (inactive)
GI50 [16]: 13.2 µM (inactive)
GI50 [17]: 12.1 µM (inactive)
GI50 [18]: 3.77 µM (inactive)

CC(=O)NC1CC2Oc3ccc(C)cc3C(C)(O2)C1O (centres undefined)
GI50 [2]: > 100 µM (inactive)
GI50 [3]: > 100 µM (inactive)
GI50 [4]: > 100 µM (inactive)
GI50 [5]: > 100 µM (inactive)
GI50 [6]: > 100 µM (inactive)
GI50 [7]: > 100 µM (inactive)
GI50 [8]: > 100 µM (inactive)
GI50 [9]: > 100 µM (inactive)
GI50 [11]: > 100 µM (inactive)
GI50 [13]: > 100 µM (inactive)
GI50 [14]: > 100 µM (inactive)
GI50 [15]: > 100 µM (inactive)
GI50 [16]: > 100 µM (inactive)
GI50 [17]: > 100 µM (inactive)
GI50 [18]: > 100 µM (inactive)

COc1ccc(/C(Cl)=C(\C=O)c2ccc(Cl)c(Cl)c2)cc1
GI50 [19]: 20.4 µM (inactive)
GI50 [1]: 9.12 µM (inactive)
GI50 [2]: 17.1 µM (inactive)
GI50 [3]: 13.3 µM (inactive)
GI50 [4]: 4.37 µM (inactive)
GI50 [5]: 17 µM (inactive)
GI50 [6]: 4.04 µM (inactive)
GI50 [7]: 3.72 µM (inactive)
GI50 [8]: 2.6 µM (inactive)
GI50 [9]: 4.4 µM (inactive)
GI50 [11]: 5.57 µM (inactive)
GI50 [12]: 5.3 µM (inactive)
GI50 [13]: 9.12 µM (inactive)
GI50 [14]: 10.2 µM (inactive)
GI50 [15]: 14.4 µM (inactive)
GI50 [17]: 8.2 µM (inactive)
GI50 [18]: 12.8 µM (inactive)

CCOC(=O)C(=C=C=C(c1ccccc1)c1ccccc1)C(=O)OCC
GI50 [19]: 48.4 µM (inactive)
GI50 [2]: 26.7 µM (inactive)
GI50 [3]: 18.9 µM (inactive)
GI50 [4]: 19.4 µM (inactive)
GI50 [5]: 18.1 µM (inactive)
GI50 [6]: 11.3 µM (inactive)
GI50 [7]: 17.1 µM (inactive)
GI50 [8]: 9.08 µM (inactive)
GI50 [9]: 38.5 µM (inactive)
GI50 [10]: 18.1 µM (inactive)
GI50 [11]: 21.9 µM (inactive)
GI50 [12]: 25.8 µM (inactive)
GI50 [13]: 16.3 µM (inactive)
GI50 [14]: 18.4 µM (inactive)
GI50 [15]: 17.4 µM (inactive)
GI50 [16]: 16.8 µM (inactive)
GI50 [17]: 18.5 µM (inactive)
GI50 [18]: 18.6 µM (inactive)
